According to PubChem BioAssay AID1259407 (Chemical Carcinogenesis Research Information System (CCRIS), 2018):
Activity calls are given as the source filed them. The rule behind the calls is not given here.

System: CCRIS mutagenicity, Ames/micronucleus/aberration tests
Test: CCRIS mutagenicity studies

With ClCCl the mutagenic call (Test System: AMES SALMONELLA TYPHIMURIUM, Strain/Indicator: TA104, Metabolic Activation: RAT, LIVER, S-9, AROCLOR 1254, Method: STANDARD PLATE) was “inactive; negative”, the mutagenic call (Test System: AMES SALMONELLA TYPHIMURIUM, Strain/Indicator: TA1535 (GST+), Metabolic Activation: NONE, Method: STANDARD PLATE) was “active; positive” and the mutagenic call (Test System: AMES SALMONELLA TYPHIMURIUM, Strain/Indicator: TA1535, Metabolic Activation: NONE, Method: GAS EXPOSURE) was “active; positive”. The mutagenic call (Test System: AMES SALMONELLA TYPHIMURIUM, Strain/Indicator: TA1535, Metabolic Activation: NONE, Method: STANDARD PLATE) was “inactive; negative”, the mutagenic call (Test System: AMES SALMONELLA TYPHIMURIUM, Strain/Indicator: TA1535, Metabolic Activation: RAT, LIVER, S-9, PHENOBARBITAL AND BETA-NAPHTHOFLAVONE, Method: GAS EXPOSURE) was “active; positive” and the mutagenic call (Test System: AMES SALMONELLA TYPHIMURIUM, Strain/Indicator: TA1537, Metabolic Activation: NONE, Method: GAS EXPOSURE) was “inactive; negative”. For the same molecule, the mutagenic call (Test System: AMES SALMONELLA TYPHIMURIUM, Strain/Indicator: TA1537, Metabolic Activation: RAT, LIVER, S-9, PHENOBARBITAL AND BETA-NAPHTHOFLAVONE, Method: GAS EXPOSURE) was “inactive; negative”, the mutagenic call (Test System: AMES SALMONELLA TYPHIMURIUM, Strain/Indicator: TA2638, Metabolic Activation: NONE, Method: STANDARD PLATE) was “inactive; negative” and the mutagenic call (Test System: CHINESE HAMSTER OVARY, Strain/Indicator: CHO-K1 (HPRT)/6-THIOGUANINE, Metabolic Activation: MOUSE, LIVER, S-100 (2.5-25%), 5 MILLIMOLAR GLUTATHIONE, Method: SUSPENSION/PLATE) was “active; positive”. For the same molecule, the mutagenic call (Test System: CHINESE HAMSTER OVARY, Strain/Indicator: CHO-K1 (HPRT)/6-THIOGUANINE, Metabolic Activation: MOUSE, LIVER, S-100 (15-25%), DL-BUTHIONINE-(S,R)-SULFOXIMINE, Method: SUSPENSION) was “inactive; negative”, the mutagenic call (Test System: CHINESE HAMSTER OVARY, Strain/Indicator: CHO-K1 (HPRT)/6-THIOGUANINE, Metabolic Activation: MOUSE, LIVER, S-100 (15-35%), 5 MILLIMOLAR GLUTATHIONE, Method: SUSPENSION) was “active; positive” and the mutagenic call (Test System: E. COLI, Strain/Indicator: K12(AB1157), Metabolic Activation: MOUSE, LIVER, S-9, Method: SUSPENSION/PLATE) was “active; positive”. For the same molecule, the mutagenic call (Test System: E. COLI, Strain/Indicator: K12(AB1157), Metabolic Activation: NONE, Method: SUSPENSION/PLATE) was “inactive; negative”, the mutagenic call (Test System: E. COLI, Strain/Indicator: K12(AB1157), Metabolic Activation: RAT, LIVER, S-9, Method: SUSPENSION/PLATE) was “inactive; negative” and the mutagenic call (Test System: E. COLI, Strain/Indicator: K12(AB1886) UVRA, Metabolic Activation: MOUSE, LIVER, S-9, Method: SUSPENSION/PLATE) was “inactive; negative”. The mutagenic call (Test System: E. COLI, Strain/Indicator: K12(AB1886) UVRA, Metabolic Activation: NONE, Method: SUSPENSION/PLATE) was “inactive; negative”, the mutagenic call (Test System: E. COLI, Strain/Indicator: K12(AB1886) UVRA, Metabolic Activation: RAT, LIVER, S-9, Method: SUSPENSION/PLATE) was “inactive; negative” and the mutagenic call (Test System: E. COLI, Strain/Indicator: WP2 (PKM101), Metabolic Activation: NONE, Method: STANDARD PLATE) was “inactive; negative”. The mutagenic call (Test System: E. COLI, Strain/Indicator: WP2 UVRA (PKM101), Metabolic Activation: NONE) was “active; positive”, the mutagenic call (Test System: E. COLI, Strain/Indicator: WP2 UVRA (PKM101), Metabolic Activation: NONE, Method: STANDARD PLATE) was “inactive; negative” and the mutagenic call (Test System: E. COLI, Strain/Indicator: WP2 UVRA (PKM101), Metabolic Activation: RAT, LIVER, HOMOGENATE, AROCLOR 1254) was “active; positive”. For the same molecule, the mutagenic call (Test System: E. COLI, Strain/Indicator: WP2 UVRA (PKM101), Metabolic Activation: RAT, LIVER, MICROSOMES, AROCLOR 1254) was “active; positive”, the mutagenic call (Test System: E. COLI, Strain/Indicator: WP2 UVRA (PKM101), Metabolic Activation: RAT, LIVER, S-9, AROCLOR 1254) was “active; positive” and the mutagenic call (Test System: E. COLI, Strain/Indicator: WP2 UVRA (PKM101), Metabolic Activation: RAT, LIVER, S-100, AROCLOR 1254) was “active; positive”. The mutagenic call (Test System: E. COLI, Strain/Indicator: WP2UVRA/PKM101, Metabolic Activation: NONE, Method: GAS EXPOSURE) was “active; positive”, the mutagenic call (Test System: E. COLI, Strain/Indicator: WP2UVRA/PKM101, Metabolic Activation: RAT, LIVER, S-9, PHENOBARBITAL AND BETA-NAPHTHOFLAVONE, Method: GAS EXPOSURE) was “active; positive” and the mutagenic call (Test System: E. COLI, Strain/Indicator: WP2UVRA, Metabolic Activation: NONE, Method: GAS EXPOSURE) was “active; positive”. The mutagenic call (Test System: E. COLI, Strain/Indicator: WP2UVRA, Metabolic Activation: RAT, LIVER, S-9, PHENOBARBITAL AND BETA-NAPHTHOFLAVONE, Method: GAS EXPOSURE) was “active; positive”, the mutagenic call (Test System: Mouse lymphoma, Strain/Indicator: L5178Y (tk+/tk-), Metabolic Activation: None, Method: Suspension/plate) was “inactive; negative” and the mutagenic call (Test System: Mouse lymphoma, Strain/Indicator: L5178Y (tk+/tk-), Metabolic Activation: Rat, Liver, S-9, Aroclor 1254, Method: Suspension/plate) was “inactive; negative”.
